Test results from patent US10711000B2 (Fronthera U.S. Pharmaceuticals LLC, priority 2018, dated 2020).
Where two headings read alike, the source gives them in different places.

Biological target: T1, Autotaxin (Homo sapiens, UniProt Q13822)
T1 construct: from tissue; host or cells: pooled human plasma
Test: LPA formation in pooled human plasma (ex vivo autotaxin inhibition)
Type: biochemical
Settings: 2 hours incubation
Procedure, shortened: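 Ex vivo: LPA 18:2 and 20:4 levels in compound-treated versus untreated pooled human plasma after 2 h incubation, measured by butanol extraction and negative-mode MRM LC/MS/MS against calibration standards. IC50 from non-linear fit of inhibition versus concentration.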

[1] = LPA 18:2 by LC/MS/MS, read-out: LPA formation (18:2) (IC50)
[2] = LPA 20:4 by LC/MS/MS, read-out: LPA formation (20:4) (IC50)

| Compound | IC50 [1] [nM] | IC50 [2] [nM] |
| --- | --- | --- |
| CCc1nn2ccc(N3CC4(CC(C(=O)N5CC(O)C5)C4)C3)cc2c1N(C)c1nc(-c2ccc(F)cc2)c(C#N)s1 [Example 8, 2-[[2-ethyl-5-[6-(3-hydroxyazetidine-1-carbonyl)-2-azaspiro[3.3]heptan-2-yl]pyrazolo[1,5-a]pyridin-3-yl]-methyl-amino]-4-(4-fluorophenyl)thiazole-5-carbonitrile] | 100 to 500 | 100 to 500 |
| CCc1nn2cc(C)c(N3CC4(CN(C(=O)C(O)CO)C4)C3)cc2c1N(C)c1nc(-c2ccc(F)cc2)c(C#N)s1 (stereo not shown) [Example 99, 2-((5-(6-(2,3-dihydroxypropanoyl)-2,6-diazaspiro[3.3]heptan-2-yl)-2-ethyl-6-methylpyrazolo[1,5-a]pyridin-3-yl)(methyl)amino)-4-(4-fluorophenyl)thiazole-5-carbonitrile] | ≤ 100 | ≤ 100 |
| CCc1nn2c(C)cc(N3CCN(CC(=O)N4CC(O)C4)CC3)nc2c1N(C)c1nc(-c2ccc(F)cc2)c(C#N)s1 [Example 95, 2-((2-ethyl-5-(4-(2-(3-hydroxyazetidin-1-yl)-2-oxoethyl)piperazin-1-yl)-7-methylpyrazolo[1,5-a]pyrimidin-3-yl)(methyl)amino)-4-(4-fluorophenyl)thiazole-5-carbonitrile] | > 1000 | > 1000 |
| CCc1nn2c(C)cc(N3CC4(CN(C(=O)c5ccco5)C4)C3)cc2c1N(C)c1nc(-c2ccc(F)cc2)c(C#N)s1 [Example 66, 2-((2-ethyl-5-(6-(furan-2-carbonyl)-2,6-diazaspiro[3.3]heptan-2-yl)-7-methylpyrazolo[1,5-a]pyridin-3-yl)(methyl)amino)-4-(4-fluorophenyl)thiazole-5-carbonitrile] | ≤ 100 | ≤ 100 |
| CCc1nn2c(C)cc(N3CC4(CCN(C(=O)C(C)(C)O)C4)C3)cc2c1N(C)c1nc(-c2ccc(F)cc2)c(C#N)s1 [Example 53, 2-((2-ethyl-5-(6-(2-hydroxy-2-methylpropanoyl)-2,6-diazaspiro[3.4]octan-2-yl)-7-methylpyrazolo[1,5-a]pyridin-3-yl)(methyl)amino)-4-(4-fluorophenyl)thiazole-5-carbonitril] | ≤ 100 | ≤ 100 |
| CCc1nn2c(C)cc(N3CC4(CN(C(=O)C5CCCO5)C4)C3)cc2c1N(C)c1nc(-c2ccc(F)cc2)c(C#N)s1 (stereo not shown) [Example 38, 2-((2-ethyl-7-methyl-5-(6-(tetrahydrofuran-2-carbonyl)-2,6-diazaspiro[3.3]heptan-2-yl)pyrazolo[1,5-a]pyridin-3-yl)(methyl)amino)-4-(4-fluorophenyl)thiazole-5-carbonitrile] | ≤ 100 | ≤ 100 |
| CCc1nn2ccc(N3CCN(CC(=O)N4CC(CO)C4)CC3)cc2c1N(C)c1nc(-c2ccc(F)cc2)c(C#N)s1 [Example 4, 2-((2-ethyl-5-(4-(2-(3-(hydroxymethyl)azetidin-1-yl)-2-oxoethyl)piperazin-1-yl)pyrazolo[1,5-a]pyridin-3-yl)(methyl)amino)-4-(4-fluorophenyl)thiazole-5-carbonitrile] | ≤ 100 | ≤ 100 |
| CCc1nn2c(C)cc(N3CC4C(C3)C4NC(=O)[C@H]3CCOC3)cc2c1N(C)c1nc(-c2ccc(F)cc2)c(C#N)s1 (stereo partly drawn) [Example 64, (3S)—N-(3-(3-((5-cyano-4-(4-fluorophenyl)thiazol-2-yl)(methyl)amino)-2-ethyl-7-methylpyrazolo[1,5-a]pyridin-5-yl)-3-azabicyclo[3.1.0]hexan-6-yl)tetrahydrofuran-3-carboxamide] | 100 to 500 | 100 to 500 |
| Cc1cc(N2CC3(CN(C(=O)C4(O)CCOCC4)C3)C2)cc2c(N(C)c3nc(-c4ccc(F)cc4)c(C#N)s3)c(C3CC3)nn12 [Example 90, 2-((2-cyclopropyl-5-(6-(4-hydroxytetrahydro-2H-pyran-4-carbonyl)-2,6-diazaspiro[3.3]heptan-2-yl)-7-methylpyrazolo[1,5-a]pyridin-3-yl)(methyl)amino)-4-(4-fluorophenyl)thiazole-5-carbonitrile] | ≤ 100 | ≤ 100 |
| CCc1nn2c(C)cc(N3CCN(CC(=O)N(C)C)CC3)cc2c1N(C)c1nc(-c2ccc(F)cc2)c(C#N)s1 [Example 24, 2-(4-(3-((5-cyano-4-(4-fluorophenyl)thiazol-2-yl)(methyl)amino)-2-ethyl-7-methylpyrazolo[1,5-a]pyridin-5-yl)piperazin-1-yl)-N,N-dimethylacetamide] | 100 to 500 | ≤ 100 |
| CCc1nn2c(C)cc(N3CC4(C3)CN(S(C)(=O)=O)C4)cc2c1N(C)c1nc(-c2ccc(F)cc2)c(C#N)s1 [Example 71] | 100 to 500 | 100 to 500 |
| CCc1nn2ccc(N3CCN(CC(=O)N4CC[C@H](O)C4)CC3)cc2c1N(C)c1nc(-c2ccc(F)cc2)c(C#N)s1 [Example 2, (S)-2-((2-ethyl-5-(4-(2-(3-hydroxypyrrolidin-1-yl)-2-oxoethyl)piperazin-1-yl)pyrazolo[1,5-a]pyridin-3-yl)(methyl)amino)-4-(4-fluorophenyl)thiazole-5-carbonitrile] | ≤ 100 | ≤ 100 |
| Cc1cc(N2CC(C#N)C2)cc2c(N(C)c3nc(-c4ccc(F)cc4)c(C#N)s3)c(C3CC3)nn12 [Example 88, 2-[[5-(3-cyanoazetidin-1-yl)-2-cyclopropyl-7-methyl-pyrazolo[1,5-a]pyridin-3-yl]-methyl-amino]-4-(4-fluorophenyl)thiazole-5-carbonitrile] | > 1000 | > 1000 |
| CCc1nn2ccc(N3CC4(CN(C(=O)N5CC(O)C5)C4)C3)cc2c1N(C)c1nc(-c2ccc(F)cc2)c(C#N)s1 [Example 11, 2-((2-ethyl-5-(6-(3-hydroxyazetidine-1-carbonyl)-2,6-diazaspiro[3.3]heptan-2-yl)pyrazolo[1,5-a]pyridin-3-yl)(methyl)amino)-4-(4-fluorophenyl)thiazole-5-carbonitrile] | ≤ 100 | ≤ 100 |
| Cc1cc(N2CC3(CN(C(=O)C4CCN(C)C4)C3)C2)cc2c(N(C)c3nc(-c4ccc(F)cc4)c(C#N)s3)c(C3CC3)nn12 (stereo not shown) [Example 85, 2-((2-cyclopropyl-7-methyl-5-(6-(1-methylpyrrolidine-3-carbonyl)-2,6-diazaspiro[3.3]heptan-2-yl)pyrazolo[1,5-a]pyridin-3-yl)(methyl)amino)-4-(4-fluorophenyl)thiazole-5-carbonitrile] | 100 to 500 | 100 to 500 |
| Cc1cc(N2CC3(CN(C(=O)[C@H]4CCOC4)C3)C2)cc2c(N(C)c3nc(-c4ccc(F)cc4)c(C#N)s3)c(C3CC3)nn12 [Example 78, (S)-2-((2-cyclopropyl-7-methyl-5-(6-(tetrahydrofuran-3-carbonyl)-2,6-diazaspiro[3.3]heptan-2-yl)pyrazolo[1,5-a]pyridin-3-yl)(methyl)amino)-4-(4-fluorophenyl)thiazole-5-carbonitrile] | ≤ 100 | ≤ 100 |
| CCc1nn2c(C)cc(N3CCN(CC(=O)N4CC[C@H](O)C4)CC3)cc2c1N(C)c1nc(-c2ccc(F)cc2)c(C#N)s1 [Example 26, (S)-2-((2-ethyl-5-(4-(2-(3-hydroxypyrrolidin-1-yl)-2-oxoethyl)piperazin-1-yl)-7-methylpyrazolo[1,5-a]pyridin-3-yl)(methyl)amino)-4-(4-fluorophenyl)thiazole-5-carbonitrile] | 100 to 500 | 100 to 500 |
| CCc1nn2ccc(N3CCC4(CCN(C(=O)N5CC(O)C5)CC4)C3)cc2c1N(C)c1nc(-c2ccc(F)cc2)c(C#N)s1 [Example 17, 2-((2-ethyl-5-(8-(3-hydroxyazetidine-1-carbonyl)-2,8-diazaspiro[4.5]decan-2-yl)pyrazolo[1,5-a]pyridin-3-yl)(methyl)amino)-4-(4-fluorophenyl)thiazole-5-carbonitrile] | ≤ 100 | ≤ 100 |
| CCc1nn2c(C)cc(N3CC4(CN(C(=O)[C@@H]5CCOC5)C4)C3)cc2c1N(C)c1nc(-c2ccc(F)cc2)c(C#N)s1 [Example 40, (R)-2-((2-ethyl-7-methyl-5-(6-(tetrahydrofuran-3-carbonyl)-2,6-diazaspiro[3.3]heptan-2-yl)pyrazolo[1,5-a]pyridin-3-yl)(methyl)amino)-4-(4-fluorophenyl)thiazole-5-carbonitrile] | ≤ 100 | ≤ 100 |
| CCc1nn2c(C)cc(-c3cnn(C[C@@H](O)CO)c3)cc2c1N(C)c1nc(-c2ccc(F)cc2)c(C#N)s1 [Example 72, (R)-2-((5-(1-(2,3-dihydroxypropyl)-1H-pyrazol-4-yl)-2-ethyl-7-methylpyrazolo[1,5-a]pyridin-3-yl)(methyl)amino)-4-(4-fluorophenyl)thiazole-5-carbonitrile] | > 1000 | > 1000 |
| CCc1nn2c(C)cc(N3CCN(CC(=O)N4CC[C@@H](O)C4)CC3)cc2c1N(C)c1nc(-c2ccc(F)cc2)c(C#N)s1 [Example 25, (R)-2-((2-ethyl-5-(4-(2-(3-hydroxypyrrolidin-1-yl)-2-oxoethyl)piperazin-1-yl)-7-methylpyrazolo[1,5-a]pyridin-3-yl)(methyl)pamino)-4-(4-fluorophenyl)thiazole-5-carbonitrile] | ≤ 100 | ≤ 100 |
| CCc1nn2c(C)cc(N3CCC4(CN(C(=O)C5(O)CC5)C4)C3)cc2c1N(C)c1nc(-c2ccc(F)cc2)c(C#N)s1 [Example 54, 2-((2-ethyl-5-(2-(1-hydroxycyclopropane-1-carbonyl)-2,6-diazaspiro[3.4]octan-6-yl)-7-methylpyrazolo[1,5-a]pyridin-3-yl)(methyl)amino)-4-(4-fluorophenyl)thiazole-5-carbonitrile] | 500 to 1000 | 500 to 1000 |
| CCn1nc2ncc(N3CCN(CC(=O)N4CC(O)C4)CC3)cc2c1N(C)c1nc(-c2ccc(F)cc2)c(C#N)s1 [Compound 115, 2-((2-ethyl-5-(4-(2-(3-hydroxyazetidin-1-yl)-2-oxoethyl)piperazin-1-yl)-2H-pyrazolo[3,4-b]pyridin-3-yl)(methyl)amino)-4-(4-fluorophenyl)thiazole-5-carbonitrile] | ≤ 100 | ≤ 100 |
